The subject of one data set is rodents. As to conditions: in rodents; cited from earlier work.
The subject of a further data set is man. Particulars: in man; cited from earlier work.
Another data set deals with K562. The data set is described as follows: In vitro chemosensitivity, microtetrazolium (MTT) assay, K562. It counts as cell-based. As to conditions: K562 human chronic myelogenous leukaemia, concentration reducing growth rate by 50% of untreated control. The procedure: (§1) The cytotoxic properties of selected examples were evaluated against a panel of established human tumour cell lines.
(§2) K562--a human chronic myelogenous leukaemia (Lozzio and Lozzio, 1975). HRT--18--a human primary adenocarcinoma from the human rectum (Tompkins et al, 1974).
(§3) Chemosensitivity in vitro was assessed using the microtetrazolium assay (MTT assay) (Twentyman & Luscombe, 1987).
(§4) Examples were soluble in 5% ethanol/saline. To each well, 20 μl of drug solution was added to give a final drug concentration of 0.1-100 μg/ml at four log increments. Solvent controls were used throughout, and the first row of each plate contained media plus drug in the absence of any cells. Each point is the result of three separate experiments and cytotoxic effects are expressed in terms of percent survival, taking the optical density of the control plates to represent 100% survival.
(§5) IC50 values are the average concentrations of drug required to reduce the growth rate by 50% of the untreated control system.

A further data set deals with HCLO. The data set can be described thus: In vitro chemosensitivity, microtetrazolium (MTT) assay, HCLO. In kind it is cell-based, human. As to conditions: concentration reducing growth rate by 50% of untreated control. The procedure: as §1
(§6) HT-29 primary adenocarcinomas of the human colon.
as §3, §4, §5

The next data set relates to HRT-18. The data set can be described thus: In vitro chemosensitivity, microtetrazolium (MTT) assay, HRT-18. It counts as cell-based. Particulars: HRT-18 human rectum adenocarcinoma, concentration reducing growth rate by 50% of untreated control. The procedure: as §1, §2, §3, §4, §5
Another data set relates to HT-29. The data set is described as follows: In vitro chemosensitivity, microtetrazolium (MTT) assay, HT-29. It counts as cell-based. Particulars: HT-29 human colon adenocarcinoma, concentration reducing growth rate by 50% of untreated control. The procedure: as §1, §6, §3, §4, §5
For the next data set, the system named is DLD-1. The data set is described as follows: In vitro chemosensitivity, microtetrazolium (MTT) assay, DLD-1. It counts as cell-based. As to conditions: DLD-1 human colon adenocarcinoma, concentration reducing growth rate by 50% of untreated control. The procedure:
as §1, §6, §3, §4, §5

pIC50: −log10 of the molar value.

Consider `COc1cccc2c1C(=O)c1c(O)c3c(c(O)c1C2=O)C[C@@](O)(C(=O)CO)C[C@@H]3O[C@H]1C[C@H](N)[C@H](O)[C@H](C)O1` [doxorubicin], for which the maximum dose with rodents is 5 mg/kg; with man it was 1 to 2 mg/kg.
As to `CC(C)(C)OC(=O)N[C@H](Cc1ccccc1)C(=O)NCCCNc1cccc2c1C(=O)c1ccccc1C2=O` [Example 18, 1-[(3-N-tertiarybutoxycarbonyl-D-phenylalanylamino-propyl)amino]-anthracene-9,10-dione], the negative-log IC50 (pIC50) in the data set on K562 was 4.70; in the data set with HCLO, 4.76; in the data set with HRT-18 it was 5.11; in the data set on HT-29, 5.60; with DLD-1, 4.88.
For `N[C@@H](Cc1ccc(O)cc1)C(=O)NCCCNc1cccc2c1C(=O)c1ccccc1C2=O` [Example 15, 1-[3-(L-tyrosinylaminopropyl)amino]-anthracene-9,10-dione], in that order: 4.85, 5.17, 5.52, 6.22 and 5.68.
In the same order, the values of `CSCC[C@H](N)C(=O)NCCCNc1cccc2c1C(=O)c1ccccc1C2=O` [Example 12] are 4.76, 4.93, 4.98, 5.11 and 5.39.
In the case of `N[C@H](Cc1ccccc1)C(=O)NCCCCNc1cccc2c1C(=O)c1ccccc1C2=O` [Example 20, 1-[(4-D-phenylalanylaminobutyl)amino]-anthracene-9,10-dione], the pIC50 is 4.64 in the data set with K562; 4.67 in the data set on HCLO (Homo sapiens); 4.77 with HRT-18; 4.85 in the data set on HT-29; 5.07 with DLD-1.
